Entries after “also recorded” stand apart in the source; their conditions may differ. Where two headings read alike, the source gives them in different places.

One experiment concerns MAP. The experiment in a line: Growth inhibition of MAP (strain not stated or MAP strains in general). Conditions: for %−ΔcGI (percent decrease in cumulative GI): Example 3, strain not stated; for effect on growth of MAP, in words: MAP strains in general.
Another experiment has as its system M. avium ATCC 25291. Format: cell-based, M. avium subspecies avium. Conditions: for effect on growth, in words / %-ΔcGI: M. avium ATCC 25291; for % ΔcGI: M. avium 25291, vs 3.2% DMSO control; for %-ΔcGI: Example 5.
The test system of a further experiment is MAP ATCC 19698 (bovine). Format: cell-based, Mycobacterium avium subspecies paratuberculosis. Particulars: for % ΔcGI: Bovine MAP 19698, vs 3.2% DMSO control; for %-ΔcGI: Example 5.
For a further experiment, the system named is M. avium 101. The class given is cell-based, M. avium subspecies avium. Particulars: for % ΔcGI: vs 3.2% DMSO control; for %-ΔcGI: Example 5.
Experiment [1] deals with MAP Dominic (ATCC 43545), isolated from human with Crohn's disease. The class given is cell-based, Mycobacterium avium subspecies paratuberculosis. Conditions: for % ΔcGI: vs 3.2% DMSO control; for %−ΔcGI (percent decrease in cumulative GI): MAP Dominic.
Experiment [2] relates to MAP 303 (ruminant with Johne's disease). The experiment in a line: Radiometric BACTEC growth inhibition, MAP 303. Format: cell-based, Mycobacterium avium subspecies paratuberculosis. Conditions: Bovine MAP 303, vs 3.2% DMSO control.
The test system of experiment [3] is MAP UCF 4, isolated from human with Crohn's disease. The experiment in a line: Radiometric BACTEC growth inhibition, MAP UCF4. Format: cell-based, Mycobacterium avium subspecies paratuberculosis. Particulars: for % ΔcGI: Human MAP UCF4, vs 3.2% DMSO control.
Where [4] appears, read: 1 μg/ml, Human MAP Dominic Expt. 1.
Where [5] appears, read: 1 μg/ml, Human MAP Dominic Expt. 2.
[6] abbreviates: 4 μg/ml, Human MAP Dominic Expt. 1.
Setting [7] is: 4 μg/ml, Human MAP Dominic Expt. 2.
The mark [8] stands for this setting: 16 μg/ml, Human MAP Dominic Expt. 1.
The mark [9] stands for this setting: 16 μg/ml, Human MAP Dominic Expt. 2.
[10] abbreviates: 64 μg/ml, Human MAP Dominic Expt. 1.
Where [11] appears, read: 64 μg/ml, Human MAP Dominic Expt. 2.

In the case of `CC1(C)S[C@@H]2[C@H](NC(=O)[C@H](N)c3ccccc3)C(=O)N2[C@H]1C(=O)O` [ampicillin], the “%−ΔcGI (percent decrease in cumulative GI)” value with MAP (32 μg/ml) turned out to be 21%.

Regarding `CC[C@H]1OC(=O)[C@H](C)[C@@H](O[C@H]2C[C@@](C)(OC)[C@@H](O)[C@H](C)O2)[C@H](C)[C@@H](O[C@@H]2O[C@H](C)C[C@H](N(C)C)[C@H]2O)[C@](C)(OC)C[C@@H](C)C(=O)[C@H](C)[C@@H](O)[C@]1(C)O` [clarithromycin], the “effect on growth, in words” value in the experiment with M. avium ATCC 25291 is “no evidence of growth”. Also, the “%−ΔcGI (percent decrease in cumulative GI)” value in the experiment on MAP ATCC 19698 (bovine) (4 μg/ml, MAP 19698, Example 3) is given as roughly 80%; in the experiment with MAP (0.5 μg/ml), no less than 86%.

As to `CN(Cc1cnc2nc(N)nc(N)c2n1)c1ccc(C(=O)N[C@@H](CCC(=O)O)C(=O)O)cc1` [methotrexate], the figures for the “%−ΔcGI (percent decrease in cumulative GI)” value in the experiment on MAP (2 μg/ml) and in the experiment on MAP (4 μg/ml) were 40% and no less than 75%, respectively. Also, the “effect on growth of MAP, in words” value in the experiment on MAP is “inhibit the growth kinetics of MAP”.

Take `Nc1ccc(S(=O)(=O)Nc2ccccn2)cc1` [sulfapyridine]: the “effect on proliferation / cumulative growth index, in words” value in the experiment with MAP ATCC 19698 (bovine) (MAP ATCC 19698) was “little effect on the cumulative growth index of MAP”. The “effect on growth, in words” value in the experiment on M. avium 101 is “inhibited M. avium 101 in a dose-dependent manner”.

`CO[C@H]1C[C@@H]2CC[C@@H](C)[C@@](O)(O2)C(=O)C(=O)N2CCCC[C@H]2C(=O)O[C@H]([C@H](C)C[C@@H]2CC[C@@H](O)[C@H](OC)C2)CC(=O)[C@H](C)/C=C(\C)[C@@H](O)[C@@H](OC)C(=O)[C@H](C)C[C@H](C)/C=C/C=C/C=C/1C` [Rapamycin, sirolimus (rapamycin)]: the “% ΔcGI” value is 21% in experiment [1] (setting [4]); 0% in experiment [1] (setting [5]); 13% in experiment [1] (setting [6]); −7% in experiment [1] (setting [7]); −10% in experiment [1] (setting [8]); −9% in experiment [1] (setting [9]). In addition, the “% ΔcGI” value in experiment [1] (setting [10]) is on record as −58%; in experiment [1] (setting [11]), −44%; in experiment [2] (1 μg/ml), 4%; in experiment [2] (4 μg/ml), −11%; in experiment [2] (16 μg/ml) it was −15%; in experiment [2] (64 μg/ml), −39%. Further, the “% ΔcGI” value was 10% in the experiment with M. avium ATCC 25291 (1 μg/ml); 7% in the experiment on M. avium ATCC 25291 (4 μg/ml); 11% in the experiment on M. avium ATCC 25291 (16 μg/ml); −18% in the experiment on M. avium ATCC 25291 (64 μg/ml); −3% in the experiment with MAP ATCC 19698 (bovine) (1 μg/ml); −1% with MAP ATCC 19698 (bovine) (4 μg/ml). Further, the “% ΔcGI” value is −18% with MAP ATCC 19698 (bovine) (16 μg/ml); −43% in the experiment on MAP ATCC 19698 (bovine) (64 μg/ml); −14% in experiment [3] (1 μg/ml); −9% in experiment [3] (4 μg/ml); −29% in experiment [3] (16 μg/ml); −76% in experiment [3] (64 μg/ml). Moreover, the “% ΔcGI” value in the experiment with M. avium 101 (1 μg/ml) is −19%; in the experiment with M. avium 101 (4 μg/ml), −7%; in the experiment with M. avium 101 (16 μg/ml), −28%; in the experiment on M. avium 101 (64 μg/ml) it was −39%. For the same molecule, the “effect on growth, in words” value with M. avium ATCC 25291 is “no inhibition; also recorded: no effect”. Further, in experiment [3] (64 μg/ml, MAP UCF 4), the “%−ΔcGI (percent decrease in cumulative GI)” value came to 76%. The “inhibition, in words” value in experiment [3] (lower concentrations (1 and 16 μg/ml), MAP UCF 4) is on record as “no inhibition”.

In the case of `CC(C)/N=c1\cc2n(-c3ccc(Cl)cc3)c3ccccc3nc-2cc1Nc1ccc(Cl)cc1` [Clofazimine, clofazimine], the “% ΔcGI” value in experiment [1] (setting [4]), in experiment [1] (setting [5]), in experiment [1] (setting [6]), in experiment [1] (setting [7]), in experiment [1] (setting [8]) and in experiment [1] (setting [9]) was −99% each time. For the same molecule, the “% ΔcGI” value in experiment [1] (setting [10]), in experiment [1] (setting [11]), in experiment [2] (1 μg/ml), in experiment [2] (4 μg/ml), in experiment [2] (16 μg/ml) and in experiment [2] (64 μg/ml) was −99% in each case. Also, the “% ΔcGI” value is reported as −98% in the experiment with M. avium ATCC 25291 (1 μg/ml); −98% in the experiment with M. avium ATCC 25291 (4 μg/ml); −98% in the experiment with M. avium ATCC 25291 (16 μg/ml); −99% in the experiment with M. avium ATCC 25291 (64 μg/ml); −99% in the experiment with MAP ATCC 19698 (bovine) (1 μg/ml); −99% in the experiment on MAP ATCC 19698 (bovine) (4 μg/ml). The “% ΔcGI” value (in the experiment with MAP ATCC 19698 (bovine) (16 μg/ml); in the experiment on MAP ATCC 19698 (bovine) (64 μg/ml); in experiment [3] (1 μg/ml); in experiment [3] (4 μg/ml); in experiment [3] (16 μg/ml); in experiment [3] (64 μg/ml)) was −99% in each case. For the same molecule, the “% ΔcGI” value in the experiment on M. avium 101 (1 μg/ml) is given as −98%; in the experiment on M. avium 101 (4 μg/ml), −98%; in the experiment with M. avium 101 (16 μg/ml), −98%; in the experiment with M. avium 101 (64 μg/ml), −99%. Besides, the “%−ΔcGI (percent decrease in cumulative GI)” value in experiment [1] (at 0.5 (concentration unit not given)) is listed as 97%.

In the case of `O=C(O)c1cc(/N=N/c2ccc(S(=O)(=O)Nc3ccccn3)cc2)ccc1O` [sulfasalazine], the “effect on proliferation / cumulative growth index, in words” value in the experiment with MAP ATCC 19698 (bovine) (MAP ATCC 19698) is listed as “little effect on the cumulative growth index of MAP”.

Regarding `Nc1ccc(C(=O)O)c(O)c1` [p-aminosalicylic acid], in the experiment on MAP ATCC 19698 (bovine) (MAP ATCC 19698), the “effect on proliferation / cumulative growth index, in words” value is “inhibited the proliferation of MAP (ATCC 19698) in a dose-dependent manner”.

`O=C1CCC(N2C(=O)c3ccccc3C2=O)C(=O)N1` (stereo not drawn) [Thalidomide (+), thalidomide]: the “%-ΔcGI” value is given as −4% in experiment [1] (1 μg/ml, MAP (Dominic), Table 4); 1% in experiment [1] (4 μg/ml, MAP (Dominic), Table 4); −14% in experiment [1] (16 μg/ml, MAP (Dominic), Table 4); −58% in experiment [1] (64 μg/ml, MAP (Dominic), Table 4); 4% in the experiment on M. avium 101 (1 μg/ml); −5% in the experiment on M. avium 101 (4 μg/ml). Besides, the “%-ΔcGI” value with M. avium 101 (16 μg/ml) is on record as 16%; with M. avium 101 (64 μg/ml) it was −19%. Further, in the experiment on MAP, the “effect on growth of MAP, in words” value is recorded as “more inhibitory than thalidomide (−)”.

Regarding `O=C1CCC(N2C(=O)c3ccccc3C2=O)C(=O)N1` (racemic) [Thalidomide (±), thalidomide], the “%-ΔcGI” value is −2% in experiment [1] (1 μg/ml, MAP Dominic Expt A, Example 5); 0% in experiment [1] (1 μg/ml, MAP Dominic Expt B, Example 5); −4% in experiment [1] (4 μg/ml, MAP Dominic Expt A, Example 5); −2% in experiment [1] (4 μg/ml, MAP Dominic Expt B, Example 5); −9% in experiment [1] (16 μg/ml, MAP Dominic Expt A, Example 5); −5% in experiment [1] (16 μg/ml, MAP Dominic Expt B, Example 5). For the same molecule, the “%-ΔcGI” value is −31% in experiment [1] (64 μg/ml, MAP Dominic Expt A, Example 5); −13% in experiment [1] (64 μg/ml, MAP Dominic Expt B, Example 5); 34% in the experiment on M. avium ATCC 25291 (1 μg/ml); 37% in the experiment on M. avium ATCC 25291 (4 μg/ml); 28% in the experiment with M. avium ATCC 25291 (16 μg/ml); 25% in the experiment on M. avium ATCC 25291 (64 μg/ml). Besides, the “%-ΔcGI” value in the experiment with MAP ATCC 19698 (bovine) (1 μg/ml, MAP ATCC 19698) is on record as 4%; in the experiment with MAP ATCC 19698 (bovine) (4 μg/ml, MAP ATCC 19698) it was 8%; in the experiment with MAP ATCC 19698 (bovine) (16 μg/ml, MAP ATCC 19698), −7%; with MAP ATCC 19698 (bovine) (64 μg/ml, MAP ATCC 19698) it was −26%; with M. avium 101 (1 μg/ml), −20%; in the experiment with M. avium 101 (4 μg/ml) it was −5%. Also, the entries for the “%-ΔcGI” value in the experiment with M. avium 101 (16 μg/ml) and in the experiment on M. avium 101 (64 μg/ml) were 6% and −14%, respectively. Further, the “%−ΔcGI (percent decrease in cumulative GI)” value in experiment [1] (64 μg/ml) was determined as 31%; in the experiment on MAP ATCC 19698 (bovine) (64 μg/ml, MAP ATCC 19698) it was 26%. Moreover, the “effect on growth, in words” value in the experiment with M. avium ATCC 25291 and in the experiment with M. avium 101 was “no dose-dependent inhibition” in each case.

Consider `Nc1ccc(O)c(C(=O)O)c1` [5-ASA, 5-aminosalicylic acid], for which the “effect on proliferation / cumulative growth index, in words” value with MAP ATCC 19698 (bovine) (MAP ATCC 19698) is recorded as “inhibited the proliferation of MAP (ATCC 19698) in a dose-dependent manner”. Also, in the experiment on M. avium 101, the “effect on growth, in words” value is listed as “little effect”.
